Patent US9469645B2, “Compounds and compositions for the treatment of parasitic diseases” (Novartis AG, priority 2009, dated 2016)

Assays:
[1] = tested on: 3D7 P. falciparum strain; test: parasite proliferation assay in infected red blood cells (SYBR Green I); format: cell-based, Plasmodium falciparum; details: Plasmodium falciparum, 3D7, Erythrocyte, 3D7 strain; read-out: EC50 3D7 strain
Method in brief: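 P. falciparum 3D7 grown in O+ human erythrocytes to 3–8% parasitemia and exposed to compounds. Proliferation read as the increase in parasite DNA. Detection used SYBR Green I in saponin/triton-X/EDTA lysis buffer, with overnight lysis at room temperature.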

[2] = tested on: W2 strain; test: parasite proliferation assay in infected red blood cells (SYBR Green I), W2 strain; format: cell-based; details: Erythrocyte
Text: Compounds of the invention can be assayed to measure their capacity to inhibit proliferation of parasitemia in infected red blood cells. The proliferation is quantified by the addition of SYBR Green I (INVITROGEN)® dye which has a high affinity for double stranded DNA.

| SMILES | EC50 [1] | EC50 [2] | EC50 ([2]; Plasmodium falciparum) |
| --- | --- | --- | --- |
| O=C(CCc1ccccc1F)N1CCn2c(nc(-c3ccc(F)cc3)c2Nc2ccc(Cl)c(F)c2)C1 [Compound 359] | 140 nM | 108 nM | – |
| CC(C)[C@@H](O)C(=O)N1CCn2c(nc(-c3ccc(F)cc3)c2Nc2ccc(Cl)c(F)c2)C1 [Compound 360] | 30 nM | 15 nM | – |
| Cc1ccc(Nc2c(-c3ccc(F)cc3)nc3n2CCN(C(=O)CNc2cccc(Cl)c2)C3)cc1 [Compound 361] | 2350 nM | 1140 nM | – |
| Cc1ccc(NCC(=O)N2CCn3c(nc(-c4ccc(F)cc4)c3Nc3ccc(C)cc3)C2)cc1 [Compound 362] | 810 nM | 203 nM | – |
| O=C(Cc1ccc(Cl)c(F)c1)N1CCn2c(nc(-c3ccc(F)cc3)c2Nc2ccc(Cl)c(F)c2)C1 [Compound 363] | 1750 nM | 1130 nM | – |
| COc1ccc(NC(C)(C)C(=O)N2CCn3c(nc(-c4ccc(F)cc4)c3Nc3ccc(C)cc3)C2)cc1 [Compound 364] | 4950 nM | 3740 nM | – |
| NC(C(=O)N1CCn2c(nc(-c3ccc(F)cc3)c2Nc2ccc(Cl)c(F)c2)C1)c1ccc(Cl)c(Cl)c1 (stereo not shown) [Compound 365] | 610 nM | 260 nM | – |
| Cc1ccc(Nc2c(-c3ccc(F)cc3)nc3n2CCN(C(=O)C(C)(N)C(F)(F)F)C3)cc1 (stereo not shown) [Compound 366] | 3470 nM | 1820 nM | – |
| O=C(C1CNCCO1)N1CCn2c(nc(-c3ccc(F)cc3)c2Nc2ccc(Cl)c(F)c2)C1 (stereo not shown) [Compound 367] | 190 nM | 148 nM | – |
| NC(C(=O)N1CCn2c(nc(-c3ccc(F)cc3)c2Nc2ccc(Cl)c(F)c2)C1)c1ccc(C(F)(F)F)cc1 (stereo not shown) [Compound 368] | 520 nM | 286 nM | – |
| NC(C(=O)N1CCn2c(nc(-c3ccc(F)cc3)c2Nc2ccc(Cl)c(F)c2)C1)c1ccc(Cl)cc1 (stereo not shown) [Compound 369] | 110 nM | 84 nM | – |
| O=C(c1ccc2ncccc2c1)N1CCn2c(nc(-c3ccc(F)cc3)c2Nc2ccc(Cl)c(F)c2)C1 [Compound 370] | 4350 nM | 8340 nM | – |
| Cc1ccc(Nc2c(-c3ccc(F)cc3)nc3n2CCN(C(=O)C(Nc2ccc(C)cc2)c2ccccc2)C3)cc1 (stereo not shown) [Compound 371] | 1520 nM | 1280 nM | – |
| CN1CCOC(C(=O)N2CCn3c(nc(-c4ccc(F)cc4)c3Nc3ccc(Cl)c(F)c3)C2)C1 (stereo not shown) [Compound 372] | 690 nM | 554 nM | – |
| Cc1ccc(Nc2c(-c3ccc(F)cc3)nc3n2CCN(C(=O)C(C)(C)Nc2ccccc2)C3)cc1 [Compound 374] | 590 nM | 248 nM | – |
| CC(C)(N)C(=O)N1CCn2c(nc(-c3cccc(F)c3)c2Nc2ccc(F)cc2C(F)(F)F)C1 [Compound 375] | 1130 nM | 679 nM | – |
| CN[C@H](C(=O)N1CCn2c(nc(-c3ccc(F)cc3)c2Nc2ccc(C)cc2)C1)C(C)C [Compound 376] | 60 nM | 79 nM | – |
| CN[C@@H](CC(C)C)C(=O)N1CCn2c(nc(-c3ccc(F)cc3)c2Nc2ccc(C)cc2)C1 [Compound 378] | 60 nM | 63 nM | – |
| Cc1ccc(Nc2c(-c3ccc(F)c(F)c3)nc3n2CCN(C(=O)C(C)(C)N)C3)cc1 [Compound 379] | 60 nM | 50 nM | – |
| Cc1ccc(Nc2c(-c3ccc(F)cc3)nc3n2CCN(C(=O)C(C)Nc2c(C)cccc2C)C3)cc1 (stereo not shown) [Compound 380] | 1130 nM | 1790 nM | – |
| COc1ccccc1-c1nc2n(c1Nc1ccc(C)cc1)CCN(C(=O)CN)C2 [Compound 381] | 1970 nM | 1800 nM | – |
| Cc1ccc(Nc2c(-c3ccncc3)nc3n2CCN(C(=O)CN)C3)cc1 [Compound 382] | 1050 nM | 1040 nM | – |
| Cc1ccc(Nc2c(-c3cccc(Cl)c3)nc3n2CCN(C(=O)CN)C3)cc1 [Compound 383] | 50 nM | 32 nM | – |
| Cc1ccc(Nc2c(-c3ccc(F)cc3)nc3n2CCN(C(=O)CNc2ccc(C)cc2C)C3)cc1 [Compound 384] | 470 nM | 889 nM | – |
| Cc1ccc(Nc2c(-c3ccc(F)c(F)c3)nc3n2CCN(C(=O)CN)C3)cc1 [Compound 385] | 20 nM | 20 nM | – |
| Cc1ccc(Nc2c(-c3ccc(F)cc3)nc3n2CCN(C(=O)C(C)(C)Nc2ccc(C)cc2)C3)cc1 [Compound 386] | 2620 nM | 3030 nM | – |
| Cc1ccc(Nc2c(-c3ccc(F)cc3F)nc3n2CCN(C(=O)CN)C3)cc1 [Compound 387] | 110 nM | 80 nM | – |

| SMILES | EC50 [1] | EC50 [2] | EC50 ([2]; Plasmodium falciparum) |
| --- | --- | --- | --- |
| Cc1ccc(Nc2c(-c3ccc(F)cc3)nc3n2CCN(C(=O)[C@H](C)N(C)Cc2ccccc2)C3)cc1 [Compound 388] | 3220 nM | 1770 nM | – |
| CCCC[C@H](NC)C(=O)N1CCn2c(nc(-c3ccc(F)cc3)c2Nc2ccc(C)cc2)C1 [Compound 389] | 60 nM | 51 nM | – |
| Cc1ccc(CC(=O)N2CCn3c(nc(-c4ccc(F)c(F)c4)c3Nc3ccc(C)cc3)C2)cc1 [Compound 390] | 30 nM | 28 nM | – |
| Cc1ccc(Nc2c(-c3ccc(F)c(F)c3)nc3n2CCN(C(=O)[C@H](O)C(C)C)C3)cc1 [Compound 391] | 10 nM | 7 nM | – |
| CCC[C@H](NC)C(=O)N1CCn2c(nc(-c3ccc(F)cc3)c2Nc2ccc(C)cc2)C1 [Compound 392] | 30 nM | 39 nM | – |
| CC(C)C[C@@H](N)C(=O)N1CCn2c(nc(-c3ccc(F)cc3)c2Nc2ccc(Cl)c(F)c2)C1 [Compound 394] | 50 nM | 43 nM | – |
| Cc1ccc(Nc2c(-c3ccc(F)cc3F)nc3n2CCN(C(=O)C(C)(C)N)C3)cc1 [Compound 395] | 440 nM | 246 nM | – |
| Cc1ccc(Nc2c(-c3ccc(F)c(F)c3)nc3n2CCN(C(=O)[C@@H](N)C(C)C)C3)cc1 [Compound 396] | 30 nM | 22 nM | – |
| Cc1ccc(Nc2c(-c3cccc(Cl)c3)nc3n2CCN(C(=O)C(C)(C)N)C3)cc1 [Compound 397] | 2450 nM | 1670 nM | – |
| Cc1ccc(Nc2c(-c3ccc(F)cc3)nc3n2CC(=O)NC3(C)C)cc1F [Compound 598] | 40 nM | – | 74 nM |
| Cc1ccc(Nc2c(-c3cccc(F)c3)nc3n2C(C)(C)CN(C(=O)[C@@H](O)Cc2ccccc2)C3)cc1 [Compound 599] | 120 nM | – | 134 nM |
| Cc1cc(Nc2c(-c3ccc(F)cc3)nc3n2CCN(C(=O)CN)C3(C)C)nn1C [Compound 600] | 70 nM | – | 50 nM |
| CCn1nccc1Nc1c(-c2ccc(F)cc2)nc2n1CCN(C(=O)CN)C2(C)C [Compound 601] | 3960 nM | – | 4120 nM |
| CC(C)[C@@H]1c2nc(-c3ccc(F)cc3)c(Nc3ccc(Cl)c(F)c3)n2CCN1C(=O)CN [Compound 602] | 170 nM | – | 204 nM |
| Cc1ccc(Nc2c(-c3cccc(F)c3)nc3n2CC(=O)NC3(C)C)cc1F [Compound 603] | 50 nM | – | 73 nM |
| Cc1ccc(Nc2c(-c3cccc(F)c3)nc3n2CC(=O)NC3(C)C)cc1Cl [Compound 604] | 40 nM | – | 49 nM |
| CC1(C)NC(=O)Cn2c1nc(-c1cccc(F)c1)c2Nc1ccc(Cl)c(F)c1 [Compound 605] | 40 nM | – | 57 nM |
| CN1CCn2c(nc(-c3ccc(F)cc3)c2Nc2ccc(F)cc2)C1(C)C [Compound 606] | 20 nM | – | 28 nM |
| CN1CCn2c(nc(-c3ccc(F)cc3)c2Nc2ccc(Cl)cc2)C1(C)C [Compound 607] | 30 nM | – | 48 nM |
| CN1Cc2nc(-c3ccc(F)cc3)c(Nc3ccc(Cl)cc3)n2C(C)(C)C1 [Compound 608] | 6910 nM | – | 5560 nM |
| CN1Cc2nc(-c3ccc(F)cc3)c(Nc3ccc(Cl)c(F)c3)n2C(C)(C)C1 [Compound 609] | 7020 nM | – | 4930 nM |
| Cc1cc(Nc2c(-c3ccc(F)cc3)nc3n2C(C)(C)CN(C)C3)ccc1Cl [Compound 610] | 6250 nM | – | 4900 nM |
| CN1Cc2nc(-c3ccc(F)cc3)c(Nc3ccc(F)c(F)c3)n2C(C)(C)C1 [Compound 611] | 7670 nM | – | 5760 nM |
| Cc1ccc(Nc2c(-c3ccc(F)cc3)nc3n2C(C)(C)CN(C)C3)cc1C#N [Compound 612] | 6900 nM | – | 6080 nM |
| COc1ccc(CN2Cc3nc(-c4ccc(F)cc4)c(Nc4ccc(Cl)c(F)c4)n3C(C)(C)C2=O)cc1 [Compound 613] | 6270 nM | – | 5710 nM |
| COc1ccc(CN2Cc3nc(-c4ccc(F)cc4)c(Nc4ccc(Cl)c(C)c4)n3C(C)(C)C2=O)cc1 [Compound 614] | 5020 nM | – | 4520 nM |
